{"source": "patent US20100209489A1", "about": "“Formulations of desvenlafaxine” (Supernus Pharmaceuticals, Inc., priority 2009, published 2010)", "key": {"[1]": {"conditions": "cited from earlier work"}, "[2]": {"conditions": "DI water, room temperature overnight", "method": "All samples were prepared with DI water, pH 5.5. Controls were prepared similarly without the use of modulators. All test samples were mixed overnight at room temperature. The samples were then filtered and analyzed using HPLC-UV method."}}, "note": "Where two headings read alike, the source gives them in different places."}
{"smiles": "CN(C)CC(c1ccc(O)cc1)C1(O)CCCCC1", "note": "(racemic) [desvenlafaxine]", "values": [{"measurement": "adverse events and discontinuations", "setting": "[1]; at higher doses (above 50 mg/day)", "value": "more frequent"}, {"measurement": "efficacy in clinical studies", "setting": "[1]; dose of 50-400 mg/day", "value": "effective"}, {"measurement": "additional benefit in clinical studies", "setting": "[1]; doses higher than 50 mg/day", "value": "no additional benefit"}]}
{"smiles": "CN(C)CC(c1ccc(O)cc1)C1(O)CCCCC1.Cl.O", "note": "(single isomer, unassigned; (-)) [(−)-O-desmethyl venlafaxine HCl monohydrate]", "values": [{"measurement": "API Solubility", "setting": "[2]; control without modulators, sample pH 5.2-5.5", "value": 611, "unit": "mg/mL"}, {"measurement": "API Solubility", "setting": "[2]; with Alginic acid, sample pH 2.4-2.7", "value": 568, "unit": "mg/mL"}, {"measurement": "API Solubility", "setting": "[2]; with Ascorbic acid, sample pH 2.7-3.0", "value": 597, "unit": "mg/mL"}, {"measurement": "API Solubility", "setting": "[2]; with Beta cyclodextrin, sample pH 5.2-5.5", "value": 502, "unit": "mg/mL"}, {"measurement": "API Solubility", "setting": "[2]; with Carbopol 941, sample pH 3.2-3.5", "value": 587, "unit": "mg/mL"}, {"measurement": "API Solubility", "setting": "[2]; with Citric acid, sample pH 2.1-2.4", "value": 612, "unit": "mg/mL"}, {"measurement": "API Solubility", "setting": "[2]; with Eudragit L100, sample pH 3.2-3.5", "value": 547, "unit": "mg/mL"}, {"measurement": "API Solubility", "setting": "[2]; with Fumaric acid, sample pH <1.8", "value": 639, "unit": "mg/mL"}, {"measurement": "API Solubility", "setting": "[2]; with Gelucire 44/14, sample pH 5.2-5.5", "value": 521, "unit": "mg/mL"}, {"measurement": "API Solubility", "setting": "[2]; with HPMCP, sample pH 2.7-3.0", "value": 572, "unit": "mg/mL"}, {"measurement": "API Solubility", "setting": "[2]; with Hydroxypropyl beta cyclodextrin, sample pH 5.5-5.7", "value": 589, "unit": "mg/mL"}, {"measurement": "API Solubility", "setting": "[2]; with Klucel LF, sample pH 5.5", "value": 536, "unit": "mg/mL"}, {"measurement": "API Solubility", "setting": "[2]; with Kollidone 25, sample pH 5.2-5.5", "value": 610, "unit": "mg/mL"}, {"measurement": "API Solubility", "setting": "[2]; with Kollidone/Tartaric acid, sample pH 2.1-2.4", "value": 661, "unit": "mg/mL"}, {"measurement": "API Solubility", "setting": "[2]; with Lactose, sample pH 5.2-5.5", "value": 665, "unit": "mg/mL"}, {"measurement": "API Solubility", "setting": "[2]; with Malic acid, sample pH 1.5-2.0", "value": 677, "unit": "mg/mL"}, {"measurement": "API Solubility", "setting": "[2]; with Maltrin M150/Xylitol/Sodium lauryl sulfate/Gelucire 44/14, sample pH 5.2-5.5", "value": 432, "unit": "mg/mL"}, {"measurement": "API Solubility", "setting": "[2]; with Maltrin M150, sample pH 5.2-5.5", "value": 565, "unit": "mg/mL"}, {"measurement": "API Solubility", "setting": "[2]; with Mannitol/Sorbitol/Tartaric acid/Eudragit L100, sample pH <1.8", "value": 521, "unit": "mg/mL"}, {"measurement": "API Solubility", "setting": "[2]; with Mannitol, sample pH 5.2-5.5", "value": 613, "unit": "mg/mL"}, {"measurement": "API Solubility", "setting": "[2]; with Methocel E5, sample pH 5.7", "value": 504, "unit": "mg/mL"}, {"measurement": "API Solubility", "setting": "[2]; with Methylcyclodextrin, sample pH 5.5", "value": 561, "unit": "mg/mL"}, {"measurement": "API Solubility", "setting": "[2]; with PEG 3350, sample pH 5.2-5.5", "value": 602, "unit": "mg/mL"}, {"measurement": "API Solubility", "setting": "[2]; with PEG 8000, sample pH 5.2-5.5", "value": 569, "unit": "mg/mL"}, {"measurement": "API Solubility", "setting": "[2]; with Poloxamer 188, sample pH 5.2-5.5", "value": 552, "unit": "mg/mL"}, {"measurement": "API Solubility", "setting": "[2]; with Sodium Docusate, sample pH 6.3-6.5", "value": 539, "unit": "mg/mL"}, {"measurement": "API Solubility", "setting": "[2]; with Sodium lauryl sulfate, sample pH 6.3-6.6", "value": 524, "unit": "mg/mL"}, {"measurement": "API Solubility", "setting": "[2]; with Sorbitol, sample pH 5.2-5.5", "value": 549, "unit": "mg/mL"}, {"measurement": "API Solubility", "setting": "[2]; with Tartaric acid, sample pH 1.5-2.0", "value": 719, "unit": "mg/mL"}, {"measurement": "API Solubility", "setting": "[2]; with Triethyl citrate, sample pH 5.2-5.5", "value": 643, "unit": "mg/mL"}, {"measurement": "API Solubility", "setting": "[2]; with Tween 80, sample pH 5.2-5.5", "value": 544, "unit": "mg/mL"}, {"measurement": "API Solubility", "setting": "[2]; with Vitamin E TPGS, sample pH 5.2-5.5", "value": 535, "unit": "mg/mL"}, {"measurement": "API Solubility", "setting": "[2]; with Xylitol, sample pH 5.2-5.5", "value": 547, "unit": "mg/mL"}, {"measurement": "solubility", "setting": "at about pH 6.0", "value": "less than 100 mg/mL"}, {"measurement": "solubility", "setting": "higher pH, close to the physiological pH", "value": "less than 1 mg/mL"}, {"measurement": "solubility", "setting": "low pH, for example pH 1.0", "value": "a few hundred"}]}
